From article PMC2937036 (PLoS ONE, 2010) come the findings set out here.

Where a SMILES comes first, the peptide text is derived from it. Bridges are numbered along the chain shown (N, C = ends).

Data set [1] deals with Staphylococcus aureus 42D. The data set can be described thus: Bactericidal assay (LD99.9), S. aureus in 25% human serum. It is filed as cell-based. As to conditions: unit not given (Table 3 uses µM). On the procedure: In order to be able to make a direct comparison with our serum stability measurements, a few peptides were selected to be tested for antimicrobial activity in 25% human serum (Table 4). […] All LD99.9 values are higher compared to the initial assays in 10 mM sodium phosphate buffer. Contributing factors to this general loss in activity could be the increased ionic concentration, interactions with serum components such as albumin or other proteins, and peptide degradation. Both hexamers with unprotected termini, Lfc1 and Com1, are no longer active while the cyclized short peptides remained fairly antimicrobial. In human serum, Lfc5 and Lfc6 are equally anti-staphylococcal. This reflects a greater loss of activity for Lfc6, but also coincides with the lower serum stability that this peptide has compared to Lfc5 (Fig. 2C). The activities of the cyclized Com peptides were all lowered equally with a 16-fold increase in LD99.9 values compared to activities in serum-excluded media and this agrees with their similar stability profiles (Fig. 2D).
(§1) The peptides were tested for microbicidal activities against Bacillus subtilis ATCC6633, Escherichia coli ML35, and Staphylococcus aureus 42D as previously described. Suspensions of logarithmically growing test bacteria were incubated on a microtiter plate at a concentration of 10^5 colony-forming units/mL with various peptide dilutions. The medium was 100 µL of 10 mM phosphate buffer pH 7.0 supplemented with 1% (v/v) of tryptic soy broth (TSB). For later assays, human male serum was also added to a final concentration of 25%. 10 µL aliquots were collected at time 0 h and after 2 h of incubation on a rotary shaker (300 rpm) at 37°C. These were plated on blood agar plates and incubated overnight at 37°C. The Lethal Dose concentration (LD99.9) was determined, corresponding to the concentration killing >99.9% of the inoculum at 2 h. These experiments were performed in duplicate.
(§2) For the testing of the peptides' activities in different conditions, e.g. with serum, we use the same cut-off for activity as defined for Minimum Bactericidal Concentration (MBC), i.e. a 1000-fold reduction of the inoculum. However, we designate this peptide concentration with the more general term LD99.9 which can be applied to the specified conditions of the experiments performed here.

Data set [2] has as its target bovine serum albumin (BSA) (Bos taurus, UniProt P02769). The data set can be described thus: biochemical.
Procedure: (§3) The potential for interactions between various peptides and bovine and human serum albumin (BSA and HSA) were studied by microcalorimetry.
(§4) ITC experiments were performed at 25°C on a Microcal VP-ITC microcalorimeter with data analysis performed with the Microcal Origin software. The sample cell contained 0.1 mM of either BSA or HSA dissolved in 20 mM HEPES, 100 mM NaCl, pH 7.9. The syringe was loaded with 2 mM test peptide in the same buffer, and each titration point resulted from 5 µL injections following an initial 2 µL injection. Separate control experiments were also performed to account for heats of dilution/mixing.
Data set [3] relates to Bacillus subtilis ATCC6633. The data set can be described thus: Bactericidal assay (LD99.9), B. subtilis. It is filed as cell-based. To be noted: 10 mM phosphate buffer pH 7.0 with 1% TSB, 2 h, 37°C. On the procedure: as §1, §2
The nature of data set [4]: in vitro. To be noted: male, human, 25% human male serum. The procedure:
To investigate the effects of the modifications on proteolytic susceptibility, the disappearance of the intact peptides incubated in diluted human serum at 37°C was followed by RP-HPLC. […] Incubations were normally done for 9 h and, in some cases, longer.
Peptide stabilities were assayed in diluted serum as previously described. 25% human male serum was centrifuged at 13,000 rpm for 10 min to remove lipids and the supernatant was collected and incubated at 37°C for at least 15 min. The assay was initiated upon the addition of the test peptide to the serum for a final peptide concentration of 5 µM. 200 µL aliquots of the incubations were taken for the following time points: 0, 30, 75, 120, 240, 390 and 540 min. The aliquots were mixed with 40 µL of 15% trichloroacetic acid (TCA) and incubated at 4°C for at least 15 min to precipitate serum proteins. In the case of Com5 and Com6, 5 µL of 1 M NaOH was supplemented to the TCA to prevent peptide precipitation. The supernatant was collected for each sample after centrifugation at 13,000 rpm for 10 min and stored at −20°C. These assays were performed in triplicate.
Reverse phase high performance liquid chromatography (RP-HPLC) analysis was performed with an AKTA Purifier from Amersham Biosciences (Westborough, MA) using an uRPC C2/C18 ST 4.6/100 column from Pharmacia Biotech (SanJose, CA) of the following dimensions: bed length 100 mm, i.d. 4.6 mm, 120Å. Individually thawed samples were injected through a 100 µL loop, after which a linear gradient was run from 100% solution A (0.05% trifluoroacetic acid (TFA) in filtered water) to 100% solution B (0.045% TFA in 90% acetonitrile) with a flow rate at 0.5 mL/min. The relative concentrations of the remaining soluble peptides were analyzed by the integration of the absorbance at 215 nm as a function of retention time using the Analysis module of the Unicorn software package.

The subject of data set [5] is Escherichia coli ML35. The data set can be described thus: Bactericidal assay (LD99.9), E. coli. It is filed as cell-based. To be noted: 10 mM phosphate buffer pH 7.0 with 1% TSB, 2 h, 37°C. On the procedure: as §1, §2
Data set [6] has as its system Staphylococcus aureus 42D. The data set can be described thus: Bactericidal assay (LD99.9), S. aureus. In kind it is cell-based. To be noted: 10 mM phosphate buffer pH 7.0 with 1% TSB, 2 h, 37°C. The procedure:
as §1, §2

The target in data set [7] is human serum albumin (HSA) (Homo sapiens, UniProt P02768). The data set can be described thus: biochemical.
Procedure: as §3, §4

The term Kd denotes the constant that tells how readily two partners part at equilibrium. A higher Kd goes with a looser complex. As a reminder, the amount remaining is what is left of the initial amount, in per cent. Higher therefore signals less turnover.

bovine serum albumin (BSA), sequence (P02769 25-607): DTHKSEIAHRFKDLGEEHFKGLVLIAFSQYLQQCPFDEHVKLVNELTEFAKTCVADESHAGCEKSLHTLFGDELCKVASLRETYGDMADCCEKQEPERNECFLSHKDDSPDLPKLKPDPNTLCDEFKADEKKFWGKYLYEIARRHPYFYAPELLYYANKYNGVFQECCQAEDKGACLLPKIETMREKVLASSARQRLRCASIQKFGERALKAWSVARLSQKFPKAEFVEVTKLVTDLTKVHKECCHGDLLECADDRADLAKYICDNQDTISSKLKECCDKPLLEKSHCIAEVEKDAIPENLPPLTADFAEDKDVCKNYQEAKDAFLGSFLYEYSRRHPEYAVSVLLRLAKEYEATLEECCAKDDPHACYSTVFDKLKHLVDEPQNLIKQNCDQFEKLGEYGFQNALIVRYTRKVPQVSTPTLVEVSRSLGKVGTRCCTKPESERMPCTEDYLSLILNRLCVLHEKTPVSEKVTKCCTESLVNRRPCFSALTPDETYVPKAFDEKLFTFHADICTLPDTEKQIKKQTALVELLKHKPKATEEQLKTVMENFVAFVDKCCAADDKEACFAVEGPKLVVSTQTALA
human serum albumin (HSA), sequence (P02768 25-609): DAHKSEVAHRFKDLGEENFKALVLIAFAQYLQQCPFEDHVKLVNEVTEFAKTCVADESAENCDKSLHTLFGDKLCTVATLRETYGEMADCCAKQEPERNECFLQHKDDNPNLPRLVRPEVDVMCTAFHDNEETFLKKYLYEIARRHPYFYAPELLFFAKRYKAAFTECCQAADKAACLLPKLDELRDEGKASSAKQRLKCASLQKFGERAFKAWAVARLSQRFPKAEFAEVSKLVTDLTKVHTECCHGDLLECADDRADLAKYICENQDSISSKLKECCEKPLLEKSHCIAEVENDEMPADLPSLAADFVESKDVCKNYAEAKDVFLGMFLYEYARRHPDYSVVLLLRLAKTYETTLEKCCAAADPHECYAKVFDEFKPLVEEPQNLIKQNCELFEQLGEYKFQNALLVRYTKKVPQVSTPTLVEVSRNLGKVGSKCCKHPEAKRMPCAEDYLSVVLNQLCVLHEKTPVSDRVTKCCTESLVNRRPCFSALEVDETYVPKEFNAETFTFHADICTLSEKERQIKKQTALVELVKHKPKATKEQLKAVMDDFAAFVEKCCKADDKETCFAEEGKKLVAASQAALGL

For `CC(=O)N[C@H]1CSSC[C@@H](C(N)=O)NC(=O)[C@H](Cc2ccccc2)NC(=O)[C@H](CCCNC(=N)N)NC(=O)[C@H](Cc2c[nH]c3ccccc23)NC(=O)[C@H](Cc2c[nH]c3ccccc23)NC(=O)[C@H](CCCNC(=N)N)NC(=O)[C@H](CCCNC(=N)N)NC1=O` [Com7, CH3CO-CRRWWRFC-NH2] (Ac-CRRWWRFC-NH2; disulfide 1-8), in data set [1], the “LD99.9 anti-S. aureus in 25% human serum” value is reported as 30. Moreover, the Kd in data set [2] was found to be 210 µM. The “99.9% Lethal Dose Concentration (LD99.9) B. subtilis” value in data set [3] is reported as at most 0.45 µM. The fraction remaining at 6.5 h, 5 µM in data set [4] was around 50%. Moreover, the “99.9% Lethal Dose Concentration (LD99.9) E. coli” value in data set [5] is 30 µM. Besides, the “99.9% Lethal Dose Concentration (LD99.9) S. aureus” value in data set [6] amounted to 1.9 µM.

Consider `CSCC[C@@H]1NC(=O)[C@H](CCCNC(=N)N)NC(=O)[C@H](Cc2c[nH]c3ccccc23)NC(=O)[C@H](CCC(N)=O)NC(=O)[C@H](Cc2c[nH]c3ccccc23)NC(=O)[C@H](CCCNC(=N)N)NC(=O)[C@H](CCCNC(=N)N)NC(=O)CNC(=O)[C@H](CC(C)C)NC(=O)[C@H](CCCCN)NC(=O)[C@H](CCCCN)NC1=O` [Lfc8, -RRWQWRMKKLG-] (cyclo(RRWQWRMKKLG)), for which, in data set [7], binding was characterised by a dissociation constant (Kd) of 150 µM. The “99.9% Lethal Dose Concentration (LD99.9) B. subtilis” value in data set [3] was at most 0.45 µM. Also, the “99.9% Lethal Dose Concentration (LD99.9) E. coli” value in data set [5] was 3.8 µM. In addition, the “99.9% Lethal Dose Concentration (LD99.9) S. aureus” value in data set [6] worked out at 15 µM.
